Measured values published in PMC10549826 (Antiviral research, 2023).

Biological target: A/Victoria/361/2011 NA, wild-type sequence Q136, T148, R150, T439 (recombinant PR8-based A(H3N2) virus) (Influenza A virus, UniProt G9LQ08)
Format: biochemical

For CCC(CC)[C@H](NC(C)=O)[C@@H]1[C@H](O)[C@@H](C(=O)O)C[C@H]1N=C(N)N [Peramivir, peramivir], the IC50 was 0.07 ± 0.01 nM.
